# Data: patent US20240067632A1, “WEE1 Degrading Compounds and Uses Thereof” (Bristol-Myers Squibb Company, priority 2022, published 2024)
# Where two headings read alike, the source gives them in different places.
# How the values were obtained:
# WEE1 = target: T1, WEE1 (Homo sapiens, UniProt P30291+Q96SW2); experiment: WEE1-ePL degradation assay (LentiX-WEE1-ePL-GSPT1-ND cells, InCELL Hunter luminescence, 4 h); assay type: cell-based; settings: 293T-LentiX WEE1-ePL cells; for DC50: read-out: 293T-LentiX WEE1-ePL Degradation 4 hr (EC50)
# T1 construct: C-terminal ePL-tagged (DiscoverX, Fremont, CA) full-length WEE1 expression construct; expressed in transfected cells; host or cells: LentiX-HEK293T (Invitrogen), lentiviral transduction; co-expressing GSPT1-GN (G576N, lacking the first 158 amino acids)
# Summary of the method: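 HEK293T cells stably expressing C-terminal ePL-tagged full-length WEE1, 2500 cells/well, treated 4 h at 37° C with a 10-point 3-fold series from 1 or 10 uM. Remaining WEE1-ePL read by InCELL Hunter luminescence after 30 min. EC50 came from a four-parameter logistic fit, with Ymax set from DMSO control.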
# MKN45 cells = experiment: MKN45 cell proliferation assay (Cell-Titer-Glo, 120 h); assay type: cell-based; settings: for EC50: Homo sapiens, MKN-45, 120 h, Cell-Titer-Glo, read-out: MKN45 Cell Prolif. 120 hr (EC50); for MKN45 Cell Prolif. 120 hr (Ymin-Obs): minimal percent of DMSO control observed in the concentrations tested
# Summary of the method: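 Cells seeded at 400/well onto pre-printed 10-point half-log dilutions (top 1 or 10 uM, 0.1% DMSO final), in triplicate, and grown 120 h at 37 C. Viability by Cell-Titer-Glo luminescence, blank-subtracted and normalised to DMSO; EC50 from four-parameter logistic fit, with observed minimal % of control recorded as Ymin-obs.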
# [1] = lower limit of the fit (0 = luciferase inhibitor, Ymax = DMSO control)
# [2] = lower limit of the fit (Ymin=0 luciferase inhibitor, Ymax DMSO control)
SMILES,293T-LentiX WEE1-ePL Degradation 4 hr (Ymin) (WEE1; [1]),DC50 (WEE1) [nM],EC50 (MKN45 cells; growth inhibition) [nM],MKN45 Cell Prolif. 120 hr (Ymin-Obs) (MKN45 cells),293T-LentiX WEE1-ePL Degradation 4 hr (Ymin) (WEE1; [2]),EC50 (MKN45 cells) [nM]
"O=C1CCC(N2C(=O)c3ccc(O[C@H]4CCN(Cc5ccc6ncccc6c5)C4)cc3C2=O)C(=O)N1 (stereo partly drawn) [2-(2,6-dioxopiperidin-3-yl)-5-{[(3S)-1-[(quinolin-6-yl)methyl]pyrrolidin-3-yl]oxy}-2,3-dihydro-1H-isoindole-1,3-dione]",29.65,43.4,1030,21.24,,
"O=C1CCC(N2Cc3cc(O[C@H]4CCN(Cc5ccc6nc([C@H]7C[C@H](O)C7)ccc6c5)C4)ccc3C2=O)C(=O)N1 (stereo partly drawn) [3-(1-oxo-5-{[(3S)-1-({2-[(1r,3r)-3-hydroxycyclobutyl]quinolin-6-yl}methyl)pyrrolidin-3-yl]oxy}-2,3-dihydro-1H-isoindol-2-yl)piperidine-2,6-dione]",32,3.8,5.02,7.85,,
"COc1ccc2cc(CN3CC[C@H](Oc4ccc5c(c4)CN(C4CCC(=O)NC4=O)C5=O)C3)ccc2n1 (stereo partly drawn) [3-(5-{[(3S)-1-[(2-methoxyquinolin-6-yl)methyl]pyrrolidin-3-yl]oxy}-1-oxo-2,3-dihydro-1H-isoindol-2-yl)piperidine-2,6-dione]",36,6.24,45.2,19.71,,
"CN1CC[C@@H](c2ccc3cc(CN4CC[C@H](Oc5ccc6c(c5)CN(C5CCC(=O)NC5=O)C6=O)C4)ccc3n2)C1 (stereo partly drawn) [3-(5-{[(3S)-1-({2-[(3R)-1-methylpyrrolidin-3-yl]quinolin-6-yl}methyl)pyrrolidin-3-yl]oxy}-1-oxo-2,3-dihydro-1H-isoindol-2-yl)piperidine-2,6-dione]",37,67.4,90.5,11.69,,
"COC[C@@H]1CN(Cc2ccc3nc(C4CCOCC4)ncc3c2)C[C@H]1Oc1ccc2c(c1)CN([C@H]1CCC(=O)NC1=O)C2=O [(3S)-3-(5-{[(3S,4S)-4-(methoxymethyl)-1-{[2-(oxan-4-yl)quinazolin-6-yl]methyl}pyrrolidin-3-yl]oxy}-1-oxo-2,3-dihydro-1H-isoindol-2-yl)piperidine-2,6-dione]",,17.6,,8.813,23.11,4.9
"O=C1CCC(N2Cc3cc(O[C@H]4CCN(Cc5cnn(-c6cccnc6)c5)C4)ccc3C2=O)C(=O)N1 (stereo partly drawn) [3-(1-oxo-5-{[(3S)-1-{[1-(pyridin-3-yl)-1H-pyrazol-4-yl]methyl}pyrrolidin-3-yl]oxy}-2,3-dihydro-1H-isoindol-2-yl)piperidine-2,6-dione]",31.735,,269,11.53,,
"N#Cc1ccc2cc(CN3CC[C@H](Oc4cc5c(cc4F)C(=O)N(C4CCC(=O)NC4=O)C5)C3)ccc2n1 (stereo partly drawn) [6-{[(3S)-3-{[2-(2,6-dioxopiperidin-3-yl)-6-fluoro-1-oxo-2,3-dihydro-1H-isoindol-5-yl]oxy}pyrrolidin-1-yl]methyl}quinoline-2-carbonitrile]",30.5,5.28,23.8,8.55,,
"O=C1CCC(N2Cc3cc(O[C@H]4CCN(Cc5ccc6nc(CO[C@H]7CCOC7)ccc6c5)C4)ccc3C2=O)C(=O)N1 (stereo partly drawn) [3-(1-oxo-5-{[(3S)-1-[(2-{[(3S)-oxolan-3-yloxy]methyl}quinolin-6-yl)methyl]pyrrolidin-3-yl]oxy}-2,3-dihydro-1H-isoindol-2-yl)piperidine-2,6-dione]",33,7.04,3.12,7.75,,
"N#Cc1ccc2cc(CN3CC[C@H](Oc4ccc5c(c4F)CN(C4CCC(=O)NC4=O)C5=O)C3)ccc2n1 (stereo partly drawn) [6-{[(3S)-3-{[2-(2,6-dioxopiperidin-3-yl)-4-fluoro-1-oxo-2,3-dihydro-1H-isoindol-5-yl]oxy}pyrrolidin-1-yl]methyl}quinoline-2-carbonitrile]",47,61.5,1430,62.465,,
"CC1(C)COCCN1c1ncc2cc(CN3CC[C@H](Oc4ccc5c(c4)CN(C4CCC(=O)NC4=O)C5=O)C3)ccc2n1 (stereo partly drawn) [3-(5-{[(3S)-1-{[2-(3,3-dimethylmorpholin-4-yl)quinazolin-6-yl]methyl}pyrrolidin-3-yl]oxy}-1-oxo-2,3-dihydro-1H-isoindol-2-yl)piperidine-2,6-dione]",31.5,4.82,17.6,17.3,,
"C[C@@H]1c2cc(O[C@H]3CCN(Cc4ccc5nc(N6CCOCC6)ncc5c4)C3)ccc2C(=O)N1[C@H]1CCC(=O)NC1=O [(3S)-3-[(3R)-3-methyl-5-{[(3S)-1-{[2-(morpholin-4-yl)quinazolin-6-yl]methyl}pyrrolidin-3-yl]oxy}-1-oxo-2,3-dihydro-1H-isoindol-2-yl]piperidine-2,6-dione]",,4.84,,36.11,40.43,30.8
"Cc1nc(N2CCOCC2)nc2ccc(CN3CC[C@H](Oc4ccc5c(c4)CN(C4CCC(=O)NC4=O)C5=O)C3)cc12 (stereo partly drawn) [3-(5-{[(3S)-1-{[4-methyl-2-(morpholin-4-yl)quinazolin-6-yl]methyl}pyrrolidin-3-yl]oxy}-1-oxo-2,3-dihydro-1H-isoindol-2-yl)piperidine-2,6-dione]",36,5.37,9.28,7.12,,
"Cc1ccc2cc(CN3CC[C@H](Oc4ccc5c(c4)CN(C4CCC(=O)NC4=O)C5=O)[C@H]3C)ccc2n1 (stereo partly drawn) [3-(5-{[(2R,3S)-2-methyl-1-[(2-methylquinolin-6-yl)methyl]pyrrolidin-3-yl]oxy}-1-oxo-2,3-dihydro-1H-isoindol-2-yl)piperidine-2,6-dione]",34,16.7,339,28.935,,
"CO[C@@H]1CC[C@@H](c2ccc3cc(CN4CC[C@H](Oc5ccc6c(c5)CN(C5CCC(=O)NC5=O)C6=O)C4)ccc3n2)C1 (stereo partly drawn) [3-(5-{[(3S)-1-({2-[(1R,3R)-3-methoxycyclopentyl]quinolin-6-yl}methyl)pyrrolidin-3-yl]oxy}-1-oxo-2,3-dihydro-1H-isoindol-2-yl)piperidine-2,6-dione]",30,4.74,1.95,7.45,,
